One data set addresses Cloned Human 5-HT1D-2 (Homo sapiens, UniProt P28222). Briefly: [3H]5-HT binding to cloned human 5-HT1D-2 (gene 11) in transfected cell membranes.
A further data set addresses Cloned Human 5-HT1D-1 (Homo sapiens, UniProt P28221). Briefly: [3H]5-HT binding to cloned human 5-HT1D-1 (gene 8-30-84) in transfected cell membranes.
In data set [1] the target is Human Native Membranes 5-HT1D. Conditions: literature values (footnotes a, b, c), read-out: Estimated equilibrium dissociation constants (Ki values); cited from earlier work.
The target of data set [2] is Cloned Canine 5-HT1D-1 (RDC4) (Canis lupus familiaris, UniProt P11614). Briefly: [3H]5-HT binding to cloned canine 5-HT1D-1 (RDC4) in transfected cell membranes.
Data set [3] deals with T1, cloned rat 5-HT1B receptor (Rattus norvegicus, UniProt P28564).
T1 construct: expressed in transfected cells; host or cells: Cos-7 cells, transient; membrane fraction
The class given is binding. As to the method: To islolate the putative rat homolog of the 5-HT1D gone, a rat library was screened at high stringency using a human 5-HT1D sequence as a probe. […] To identify the pharmacological profile of this receptor, radioligand binding assays were performed on a membrane fraction derived from the transfected cells.

Another data set concerns human 5-HT1D clone. Briefly: Radioligand binding to human 5-HT1D clone (comparison with rat clone).
Setting [4] is: read-out: Estimated equilibrium dissociation constants (Ki values), [3H]5-HT displacement, membranes of LM (tk−) cells stably transfected, Cheng-Prusoff.

Read-outs that look alike come from different tables or passages of the source.

Sequence of Cloned Human 5-HT1D-2 (P28222 whole entry): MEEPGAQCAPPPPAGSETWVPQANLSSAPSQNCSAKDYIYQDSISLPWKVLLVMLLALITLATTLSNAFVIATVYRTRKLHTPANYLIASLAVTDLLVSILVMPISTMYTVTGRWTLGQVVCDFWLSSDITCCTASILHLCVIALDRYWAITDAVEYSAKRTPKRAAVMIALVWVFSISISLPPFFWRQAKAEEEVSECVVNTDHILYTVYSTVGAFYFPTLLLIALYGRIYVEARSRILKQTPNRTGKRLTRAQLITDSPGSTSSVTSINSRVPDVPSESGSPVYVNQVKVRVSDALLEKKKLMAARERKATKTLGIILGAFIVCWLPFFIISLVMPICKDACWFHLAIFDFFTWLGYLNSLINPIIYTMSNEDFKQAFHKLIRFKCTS
Sequence of Cloned Human 5-HT1D-1 (P28221 whole entry): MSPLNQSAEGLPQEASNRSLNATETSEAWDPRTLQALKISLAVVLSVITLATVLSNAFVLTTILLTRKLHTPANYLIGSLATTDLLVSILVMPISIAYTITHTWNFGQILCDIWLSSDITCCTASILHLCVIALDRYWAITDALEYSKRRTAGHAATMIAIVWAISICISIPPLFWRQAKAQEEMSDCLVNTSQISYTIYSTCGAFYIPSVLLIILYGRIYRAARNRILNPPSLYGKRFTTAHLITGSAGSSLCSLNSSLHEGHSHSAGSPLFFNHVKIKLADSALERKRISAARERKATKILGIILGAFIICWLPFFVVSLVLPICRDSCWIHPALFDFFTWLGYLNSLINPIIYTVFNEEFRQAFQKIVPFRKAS
Sequence of Cloned Canine 5-HT1D-1 (RDC4) (P11614 whole entry): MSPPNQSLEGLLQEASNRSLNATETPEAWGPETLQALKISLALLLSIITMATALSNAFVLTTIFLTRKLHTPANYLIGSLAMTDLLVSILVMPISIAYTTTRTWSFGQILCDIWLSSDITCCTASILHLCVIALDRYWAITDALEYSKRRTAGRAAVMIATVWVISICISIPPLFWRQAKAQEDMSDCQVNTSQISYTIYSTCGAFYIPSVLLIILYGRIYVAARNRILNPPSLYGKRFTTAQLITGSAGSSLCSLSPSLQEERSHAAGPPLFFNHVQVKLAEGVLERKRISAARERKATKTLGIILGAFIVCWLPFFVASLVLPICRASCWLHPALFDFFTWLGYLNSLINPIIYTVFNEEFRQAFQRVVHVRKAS
T1 sequence (P28564 whole entry): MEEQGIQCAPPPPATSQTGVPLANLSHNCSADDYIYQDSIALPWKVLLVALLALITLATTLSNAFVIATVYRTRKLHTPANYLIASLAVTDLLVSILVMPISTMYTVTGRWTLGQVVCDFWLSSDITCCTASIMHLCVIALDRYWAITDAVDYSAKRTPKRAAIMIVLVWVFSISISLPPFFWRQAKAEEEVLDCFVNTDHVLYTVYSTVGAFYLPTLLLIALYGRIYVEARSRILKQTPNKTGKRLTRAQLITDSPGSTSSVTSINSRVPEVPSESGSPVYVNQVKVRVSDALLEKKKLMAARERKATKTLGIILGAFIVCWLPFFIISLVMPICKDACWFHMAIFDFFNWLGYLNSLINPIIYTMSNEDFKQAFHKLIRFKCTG

As usually defined, the Ki is the equilibrium dissociation constant of an inhibitor or competing ligand from its target. As to `c1ccc2c(N3CCNCC3)cccc2c1` [1-Napthylpiperazine], the Ki at Cloned Human 5-HT1D-2 (setting [4]) is 0.012 ± 0.002 µM; at Cloned Human 5-HT1D-1 (setting [4]), 0.0074 ± 0.0006 µM.

Turning to `Cc1[nH]c2ccc(O)cc2c1CCN` [2-methyl-5-HT], the Ki in data set [1] is 1.7 µM; on Cloned Human 5-HT1D-2 (setting [4]) it was 0.86 ± 0.109 µM; at Cloned Human 5-HT1D-1 (setting [4]) it was 0.915 ± 0.068 µM; in data set [2] (setting [4]), 0.444 ± 0.03 µM.

On to `NCCc1c[nH]c2ccc(OCc3ccccc3)cc12` [5-Benzoxyltryptamine], for which the Ki is 0.019 ± 0.008 µM at Cloned Human 5-HT1D-2 (setting [4]) and 0.0096 ± 0.003 µM on Cloned Human 5-HT1D-1 (setting [4]).

Consider `NCCc1c[nH]c2ccc(C(N)=O)cc12` [5-Carboxamidotryptamine], for which the “affinity for the binding site” value in data set [2] (RDC4-transfected cells) was “high affinity”. The inhibition constant Ki in data set [2] (setting [4]) was 0.00092 ± 6e-05 µM.

Turning to `NCCc1c[nH]c2ccc(O)cc12` [5-Hydrozytryptamine], the values for the inhibitory constant (Ki) in data set [1] and in data set [2] (setting [4]) were 0.0065 µM and 0.005 ± 0.0014 µM, respectively.

For `COc1ccc2[nH]cc(CCN)c2c1` [5-Methoxytryptamine], the Ki in data set [1] is 0.0062 µM.

With `COc1ccc2[nH]cc(CCN(C)C)c2c1` [5-methoxy-DMT], in data set [2] (setting [4]), the inhibition constant Ki was 0.0051 ± 0.0017 µM.

`Oc1ccc2c(CCC3CCNCC3)c[nH]c2c1` [6-OH-indalpine]: the “ability to compete for 3H-5-HT binding sites” value (shortened to “ability to compete”) in data set [2] (RDC4-transfected cells) is reported as “unable to compete”.

`COc1cc(CC(C)N)c(OC)cc1I` (stereo not shown) [DOI]: the Ki was 0.67 µM in data set [1], 1.67 ± 0.451 µM at Cloned Human 5-HT1D-2 (setting [4]), 0.714 ± 0.081 µM at Cloned Human 5-HT1D-1 (setting [4]) and 0.729 ± 0.102 µM in data set [2] (setting [4]).

As to `CCCN(CCC)C1CCc2cccc(O)c2C1` (stereo not shown) [DPAT], the figures for the Ki in data set [1] and in data set [2] (setting [4]) were 0.34 µM and 0.086 ± 0.021 µM, respectively.

In the case of `CCCN(CCC)CCc1c[nH]c2ccc(C(N)=O)cc12` [Dipropyl-5-CT, dipropyl-5-carboxyamidotryptamine], the figures for the inhibition constant (Ki) at Cloned Human 5-HT1D-2 (setting [4]) and on Cloned Human 5-HT1D-1 (setting [4]) were 0.042 ± 0.004 µM and 0.013 ± 0.001 µM, respectively. Moreover, in data set [3], the “activity at the rat receptor” value was “essentially inactive”.

As to `CN1C[C@H](C(=O)N[C@]2(C)O[C@@]3(O)[C@@H]4CCCN4C(=O)[C@H](Cc4ccccc4)N3C2=O)C=C2c3cccc4[nH]cc(c34)C[C@H]21` [Ergotamine], the Ki in data set [1] was 0.0003 µM; in data set [2], 0.0019 ± 0.0003 µM.

`CN1[C@@H]2CC[C@H]1C[C@@H](OC(=O)c1c[nH]c3ccccc13)C2` [ICS 205-930]: the “ability to compete” value in data set [2] (RDC4-transfected cells) is “unable to compete”.

`O=C(c1ccc(F)cc1)C1CCN(CCn2c(=O)[nH]c3ccccc3c2=O)CC1` [Ketanserin]: the inhibition constant Ki in data set [1] is over 10 µM; at Cloned Human 5-HT1D-2, 5.2 ± 0.524 µM; at Cloned Human 5-HT1D-1, 0.073 ± 0.012 µM; in data set [2] it was over 1 µM. For the same molecule, in data set [2] (RDC4-transfected cells), the “ability to compete” value is recorded as “unable to compete”.

On to `CN1C[C@H](CO)C=C2c3cccc4[nH]cc(c34)C[C@H]21` [Lysergol], for which the inhibition constant (Ki) at Cloned Human 5-HT1D-2 (setting [4]) is 0.0012 ± 0.0001 µM; on Cloned Human 5-HT1D-1 (setting [4]), 0.00063 ± 0.0001 µM.

Turning to `CN1C[C@H](CNC(=O)OCc2ccccc2)C[C@@H]2c3cccc4c3c(cn4C)C[C@H]21` [Metergoline], the inhibitory constant (Ki) in data set [1] is 0.012 µM; on Cloned Human 5-HT1D-2 it was 0.018 ± 0.003 µM; at Cloned Human 5-HT1D-1, 0.0058 ± 0.0011 µM.

Take `CSc1ccc2c(c1)C(N1CCN(C)CC1)Cc1ccccc1S2` (stereo not shown) [Methiothepin]: the Ki in data set [1] is 0.017 µM; at Cloned Human 5-HT1D-2 (setting [4]), 0.025 ± 0.007 µM; on Cloned Human 5-HT1D-1 (setting [4]), 0.011 ± 0.002 µM.

As for `CC[C@@H](CO)NC(=O)[C@@H]1C=C2c3cccc4[nH]cc(c34)C[C@H]2N(C)C1` [Methylergonovine], the Ki at Cloned Human 5-HT1D-2 is 0.0029 ± 0.0015 µM; on Cloned Human 5-HT1D-1, 0.00086 ± 0.00036 µM.

Take `CC[C@@H](CO)NC(=O)[C@@H]1C=C2c3cccc4c3c(cn4C)C[C@H]2N(C)C1` [Methysergide]: the inhibition constant (Ki) is 0.025 ± 0.005 µM on Cloned Human 5-HT1D-2 (setting [4]), 0.0036 ± 0.0006 µM on Cloned Human 5-HT1D-1 (setting [4]) and 0.0077 ± 0.0017 µM in data set [2] (setting [4]).

For the molecule `COc1ccccc1N1CCN(CCCCN2C(=O)c3ccccc3C2=O)CC1` [NAN-190], the inhibition constant Ki stood at 0.652 ± 0.048 µM on Cloned Human 5-HT1D-2 and 0.194 ± 0.012 µM at Cloned Human 5-HT1D-1.

`Nc1ccc(CCN2CCN(c3cccc(C(F)(F)F)c3)CC2)cc1` [PAPP]: the inhibitory constant (Ki) at Cloned Human 5-HT1D-2 (setting [4]) was 0.01 ± 0.001 µM; on Cloned Human 5-HT1D-1 (setting [4]), 0.0031 ± 0.0002 µM; in data set [2] (setting [4]), 0.035 ± 0.006 µM.

With `Cc1ccc(N(CC2=NCCN2)c2cccc(O)c2)cc1` [Phentolamine], the inhibitory constant (Ki) turned out to be 2.15 ± 0.685 µM on Cloned Human 5-HT1D-2 and 0.775 ± 0.072 µM at Cloned Human 5-HT1D-1.

`CC(C)NCC(O)COc1cccc2[nH]ccc12` (stereo not shown) [Pindolol]: the inhibition constant Ki is over 10 µM in data set [1], 4.88 ± 0.302 µM on Cloned Human 5-HT1D-2, 4.11 ± 0.504 µM at Cloned Human 5-HT1D-1 and over 1 µM in data set [2]. Also, the “effect of masking ligand on specific binding or pharmacological profile” value at Cloned Human 5-HT1D-2 (transfected Cos-7 cells, peptide 11, masking ligand 1 μM) was “no significant effect”; in data set [2] (transfected Cos-7 cells, RDC4, masking ligand 1 μM) it was “no significant effect”. The “effect of co-incubation on high affinity 3H-5-HT binding” value in data set [2] (RDC4-transfected cells, 1 μm) was “not affected”.

As for `COC(=O)[C@H]1[C@H]2C[C@H]3c4[nH]c5ccccc5c4CCN3C[C@H]2CC[C@@H]1O` [Rauwolscine], the figures for the Ki (on Cloned Human 5-HT1D-1; in data set [2]) were 0.016 ± 0.002 µM and 0.0053 ± 0.0029 µM, respectively.

On to `Cc1nc2sccn2c(=O)c1CCN1CCC(=C(c2ccc(F)cc2)c2ccc(F)cc2)CC1` [Ritanserin], for which the Ki in data set [1] was 3.6 µM; at Cloned Human 5-HT1D-2, 1.2 ± 0.115 µM; at Cloned Human 5-HT1D-1, 0.054 ± 0.01 µM.

With `CN1CCc2cc(Cl)c(O)cc2[C@@H](c2ccccc2)C1` [SCH-23390], the figures for the Ki at Cloned Human 5-HT1D-2 and on Cloned Human 5-HT1D-1 were 1.21 ± 0.626 µM and 0.676 ± 0.069 µM, respectively.

Turning to `O=C(CCCN1CCC2(CC1)C(=O)NCN2c1ccccc1)c1ccc(F)cc1` [Spiperone], the inhibition constant (Ki) on Cloned Human 5-HT1D-2 is over 10 µM; on Cloned Human 5-HT1D-1 (setting [4]), 0.995 ± 0.096 µM; in data set [2], over 1 µM.

As to `CNS(=O)(=O)Cc1ccc2[nH]cc(CCN(C)C)c2c1` [Sumatriptan], on Cloned Human 5-HT1D-1 (refers to Table 1), the “affinity” value is on record as “extremely high affinity”.

`FC(F)(F)c1cccc(N2CCNCC2)c1` [TFMPP]: the inhibitory constant (Ki) was 0.21 µM in data set [1] and 0.112 ± 0.014 µM in data set [2] (setting [4]).

As for `NCCc1c[nH]c2ccccc12` [Tryptamine], the Ki in data set [1] is 0.046 µM; in data set [2] (setting [4]), 0.343 ± 0.015 µM.

As for `COC(=O)[C@@H]1[C@H]2C[C@H]3c4[nH]c5ccccc5c4CCN3C[C@@H]2CC[C@@H]1O` [Yohimbine], the results for the Ki (in data set [1]; at Cloned Human 5-HT1D-1 (setting [4]); in data set [2] (setting [4])) were 0.042 µM, 0.022 ± 0.002 µM and 0.032 ± 0.006 µM, respectively.

With `COc1cc(N)c(Cl)cc1C(=O)NC1CN2CCC1CC2` (stereo not shown) [Zacopride], the inhibition constant (Ki) (on Cloned Human 5-HT1D-2; at Cloned Human 5-HT1D-1; in data set [2]) was over 10 µM throughout.

As for `CC(C)(C)NCC(O)COc1cccc2[nH]c(C#N)c(I)c12` (stereo not shown) [[^125I]iodocyanopindolol], the Kd in data set [3] (Cos-7 membranes, in the presence of 3 μM isoproterenol, read-out: Kd of [125I]iodocyanopindolol) is 0.00016 µM.

As to `CC(C)(C)NCC(O)COc1cccc2[nH]c(C#N)c([125I])c12` (stereo not shown) [[^125I]iodocyanopindolol], in the data set on human 5-HT1D clone (at 1 nM), the “specific binding of [125I]I-CYP” value was “no specific binding detected”.

As for `Clc1cccc(N2CCNCC2)c1` [mCPP], the inhibitory constant (Ki) in data set [1] was 1.2 µM; at Cloned Human 5-HT1D-2 (setting [4]), 0.361 ± 0.031 µM; at Cloned Human 5-HT1D-1 (setting [4]), 0.216 ± 0.02 µM; in data set [2] (setting [4]), 0.329 ± 0.08 µM.

Take Corynanthine: in data set [1], the Ki is over 10 µM.

In the case of ^3H-5-HT, the Kd is about 0.003 µM in data set [2] (read-out: KD of radioligand (apparent high affinity), RDC4-transfected Cos-7 and Ltk- cells); 0.0036 µM in data set [2] (read-out: Kd of radioligand, Ltk- cells transfected with RDC4); 0.003 µM in data set [2] (read-out: affinity of radioligand binding, transiently transfected Cos-7 cells, RDC4); 0.004 µM on human 5-HT1D clone (read-out: Kd of [3H]5-HT).

Values taken from US6475746B1, “Method of obtaining a composition comprising a 5-HT1D selective compound” (Synaptic Pharmaceutical Corporation, priority 1990, dated 2002).
